Measured values reported in article PMC10305181, “A VEGFB-Based Peptidomimetic Inhibits VEGFR2-Mediated PI3K/Akt/mTOR and PLCγ/ERK Signaling and Elicits Apoptotic, Antiangiogenic, and Antitumor Activities” (Pharmaceuticals, 2023).
Bridge positions count the residues as written; N and C are the ends. Peptide text beside a SMILES is read from it.

How the values were obtained:
[1] = tested on: signaling proteins in HUVECs; experiment: Western blot analysis, HUVECs; format: cell-based, human; conditions: 0.40 μM
Protocol: Next, to explore the mechanisms of the antiangiogenic property of C-VGB3, canonical signaling pathways mediated by VEGFR2 were assessed in HUVECs after 24 h incubation with C-VGB3 (0.40 μM). The binding of VEGF to VEGFR2 causes autophosphorylation of its tyrosine kinase domain and increases the receptor′s expression level on the cell surface. Therefore, we evaluated the ability of C-VGB3 to suppress the levels of constitutive and phosphorylated VEGFR2 in HUVECs.
The levels of signaling proteins were investigated by the Western blot assay. 4T1 and HUVE cells stimulated by VEGF (20 ng·mL^−1) were treated with (0.40 μM) or without C-VGB3 (treatment and control groups, respectively) after starvation in a serum-free medium for 24 h. After washing with PBS buffer twice, the cells were treated with RIPA lysis buffer containing (Sigma, St. Louis, MO, USA). Bradford′s test was performed to estimate the protein concentration. Equal amounts of total protein were electrophoresed on a 10% SDS-polyacrylamide gel, separated, and then transferred to a nitrocellulose membrane. Nitrocellulose was soaked in a blocking buffer containing 5% dry milk, Tris-buffered saline, and Tween 20 (TBST) for 1 h at ambient temperature. The nitrocellulose membrane was then washed with wash buffer and treated with antibodies against VEGFR2 p-VEGFR2, AKT, p-AKT, PI3K, mTOR, p-mTOR, NF-κB, p-NFκB, P53, MDM2, Bax, Bcl2, Bid, Bim, Apaf-1, cytochrome c, caspase-9, Fas (CD95), DR4 (CD261), DR5 (CD262), caspase3, caspase7, caspase8, PARP1, ERK 1/2, p-ERK1/2, Ras, Raf, Cdk4, GSK-3β, cyclin D1, vimentin, N-cadherin, E-cadherin, FAK, p-FAK, paxillin, p-paxillin, and β-actin overnight at 4 °C. The next steps were performed as described previously. Because molecular weight ranges of target signaling proteins are very close, individual gels were run for separate signaling proteins (Figure S7).

ectodomain of VEGFR1 = conditions: ref [9], cited from earlier work
Protocol: Our previous study has shown that a peptide reproducing helix α1 of VEGFB can unexpectedly interfere with VEGF binding to VEGFR2 and, consequently, inhibit VEGF-stimulated angiogenesis and tumor growth. In the present study, we extend this observation using another peptide (C-VGB3) that mimics loop2 and its adjacent region of VEGFB. […] For instance, competitive binding of C-VGB3 (100 μM) with biotinyl ...

4T1 cells = experiment: Annexin V/PI flow cytometry, 4T1 cells; format: cell-based, murine; conditions: 0.40 μM, 24 h, VEGF 20 ng·mL^−1; control 1.80; n = 3; p < 0.0001
Protocol: (§1) An important consequence of VEGF signals is cell survival dominantly via PI3K/AKT/mTOR pathway. Thus, inhibition of VEGF signals leads to the induction of apoptosis. Accordingly, the ability of C-VGB3 to induce apoptosis was investigated. First, apoptotic endothelial and tumor cells were analyzed by flow cytometry after staining with annexin V-FITC and PI. (Figure 6A). Treatment with C-VGB3 (0.40 μM) induced significant apoptosis in both cell lines compared to the controls. […] Apoptosis induction by C-VGB3 was further characterized by the TUNEL assay, as an indicator of late apoptosis, with a confocal microscope (Figure 6B).
(§2) Annexin V/Propidium Iodide flow cytometry was performed to investigate the C-VGB3 effect on apoptosis induction, as previously described, with some modifications. […]

HUVECs = experiment: Annexin V/PI flow cytometry, HUVECs; format: cell-based, human; conditions: 0.40 μM, 24 h, VEGF 20 ng·mL^−1; control 9.61; n = 3; p < 0.0001; in % (unit assumed)
Protocol: as §1, §2

[2] = tested on: extracellular domain of VEGFR2 (KDR); experiment: ELISA-based displacement (competition binding) of biotinylated VEGF from VEGFR2; conditions: ELISA, n = 3
Protocol: Figure 3 The binding affinity of C-VGB3 to VEGFR2. (A) ELISA-based displacement assay. The gradient concentrations of C-VGB3 (0, 0.316, 1, 3.16, 10, 31.6, 100, and 316 μM) were used in the assay. […] Error bars denote ± SEM. n = 3; ** p = 0.001, *** p = 0.0001, **** p < 0.0001, ns = not significant; one-way ANOVA. (B) A three-dimensional (produced by UCSF chimera software version 1.12) and a two-dimensional representation (produced by LigPlot software) of interactions in the C-VGB3/VEGFR2 complex is shown on the left and the right, respectively.
A displacement assay was conducted as reported previously with some modifications, including using 20 ng of the VEGFR2 extracellular domains (R&D Systems, Minneapolis, MN, USA). Peptide compounds were assayed three times per experiment.
Figure S6. Evaluating the binding capability of L-VGB3 to VEGFR2
(A) ELISA-based displacement assay. The gradient concentrations of L-VGB3 (3.16, 10, […]
to the extracellular domain of VEGFR2 at applied concentrations. (B) Two-dimensional representation of interactions (produced by LigPlot software) in L-VGB3/VEGFR2 […]

Q: With `CC(C)C[C@@H]1NC(=O)CNC(=O)[C@H](CC(=O)O)NC(=O)[C@H](CC(=O)O)NC(=O)[C@@H]2CCCN2C(=O)[C@@H]2CCCN2C(=O)[C@H](CCCNC(=N)N)NC(=O)[C@@H](NC(=O)[C@@H](N)CCC(=O)O)CSSC[C@@H](C(=O)O)NC1=O` [C-VGB3] (H-ECRPPDDGLC-OH; disulfide 2-10) as the compound, how does the AKT level ([1]; 24 h, p < 0.0001) read?
A: markedly reduced

Q: What about the CDK4 level ([1]; 24 h, p < 0.0001) of the same compound?
A: decreased

Q: What about the RAS level ([1]; 24 h, p < 0.0001) of the same compound?
A: decreased

Q: What about the mTOR total expression ([1]; 24 h, p < 0.0001) of the same compound?
A: strongly suppressed

Q: And the p-AKT level ([1]; 24 h, p < 0.0001)?
A: markedly reduced

Q: And the p-VEGFR2 formation ([1]; 24 h, p < 0.0001)?
A: markedly inhibited

Q: What about the CyclinD1 level ([1]; 24 h, p = 0.0001) of the same compound?
A: decreased

Q: What about the p-ERK1/2 level ([1]; 24 h, p = 0.0001) of the same compound?
A: decreased

Q: What about the GSK3 expression ([1]; 24 h, p = 0.001) of the same compound?
A: increased expression

Q: And the NF-κB phosphorylation ([1]; 24 h, p = 0.001)?
A: suppressed

Q: What about the PI3K expression level ([1]; 24 h, p = 0.001) of the same compound?
A: decreased

Q: And the RAF level ([1]; 24 h, p = 0.001)?
A: decreased

Q: And the VEGFR2 level ([1]; 24 h, p = 0.001)?
A: markedly inhibited

Q: And the mTOR phosphorylation ([1]; 24 h, p = 0.001)?
A: strongly suppressed

Q: And the ERK1/2 level ([1]; 24 h, p = 0.02)?
A: decreased

Q: What about the NF-κB expression ([1]; 24 h, p = 0.02) of the same compound?
A: decreased

Q: What about the “increase in cleaved PARP1” value ([1]; HUVECs (first of 'respectively'), p < 0.0001) of the same compound?
A: 3.50 fold

Q: And the “increase in Bax/Bcl2 ratio” value ([1]; HUVECs)?
A: approximately 3.35 fold

Q: And the “increased level of cleaved caspase-3” value ([1]; HUVECs)?
A: 3.8 times

Q: And the “increased level of cleaved caspase-7” value ([1]; HUVECs)?
A: 3.3 times

Q: What about the “increased level of cleaved caspase-9” value ([1]; HUVECs) of the same compound?
A: 1.4 times

Q: And the Bid expression level ([1]; HUVECs, p < 0.0001)?
A: increased

Q: And the Apaf1 ([1]; HUVECs, p = 0.0001)?
A: increase

Q: What about the Bax level ([1]; HUVECs, p = 0.0001) of the same compound?
A: increased

Q: What about the Bcl2 expression ([1]; HUVECs, p = 0.0001) of the same compound?
A: decrease

Q: What about the P53 level ([1]; HUVECs, p = 0.0001) of the same compound?
A: enormously increased

Q: What about the Bim level ([1]; HUVECs, p = 0.001) of the same compound?
A: increased

Q: What about the DR4 level ([1]; HUVECs, p = 0.001) of the same compound?
A: increase

Q: What about the MDM2 level ([1]; HUVECs, p = 0.001) of the same compound?
A: markedly decreased

Q: What about the DR5 level ([1]; HUVECs, p = 0.02) of the same compound?
A: increase

Q: What about the Fas expression ([1]; HUVECs, p = 0.02) of the same compound?
A: slightly increased

Q: What about the cytochrome c ([1]; HUVECs, p = 0.02) of the same compound?
A: increase

Q: What about the “displacement of btVEGF165” value (ectodomain of VEGFR1; 100 μM, ectodomain of VEGFR1) of the same compound?
A: 63%

Q: What about the “binding to VEGFR1” value (ectodomain of VEGFR1) of the same compound?
A: bind and neutralize VEGFR1

Q: And the level of apoptotic cells (4T1 cells)?
A: 22.6%

Q: What about the “level of apoptotic cells” value (HUVECs) of the same compound?
A: 56.62

Q: And the “inhibition of binding of bt-VEGF to KDR” value ([2]; 0-316 μM)?
A: inhibits the binding of biotinylated VEGF (bt-VEGF) to KDR dose-dependently

Q: And the “displacement of btVEGF165” value ([2]; 100 μM, ectodomain of VEGFR2)?
A: 58%
